Measurements published in PubChem BioAssay (NCI).
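All cell lines were grown in 96-well plates and treated with compound for 48 hours. The concentration for full growth arrest is given as TGI.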

Columns and labels:
Test in all cases: inhibition of tumour cell growth, NCI panel, 48 h
[1] = tested on: 786-0 renal
[2] = tested on: A498 renal
[3] = tested on: ACHN renal
[4] = tested on: BT-549 breast
[5] = tested on: HCT-15 colon
[6] = tested on: HOP-92 NSCLC
[7] = tested on: HS 578T breast
[8] = tested on: MDA-MB-435
[9] = tested on: NCI-H226 lung
[10] = tested on: NCI-H23 lung
[11] = tested on: NCI-H522 lung
[12] = tested on: OVCAR-5 ovarian
[13] = tested on: SF-268 CNS
[14] = tested on: SK-OV-3 ovarian
[15] = tested on: SN12C renal
[16] = tested on: SW-620 colon
[17] = tested on: T-47D breast
[18] = tested on: TK-10 renal
[19] = tested on: U251 CNS

`N#Cc1c(N)nc(SCc2ccccc2)c(C#N)c1-c1ccc(O)cc1` showed a TGI [1] of 30.6 µM, a TGI [2] of 30.6 µM and a TGI [3] of 28.9 µM. For the same molecule, the TGI [4] was 24.7 µM, the TGI [5] was 30.4 µM and the TGI [6] was 22 µM. The TGI [7] was > 100 µM, the TGI [8] was 25.7 µM and the TGI [9] was 48.2 µM. For the same molecule, the TGI [10] was 33.2 µM, the TGI [11] was 36.3 µM and the TGI [12] was 32.2 µM. It also gave a TGI [13] of 66.9 µM, a TGI [14] of 31.4 µM and a TGI [15] of 33.4 µM. For the same molecule, the TGI [16] was 41.6 µM, the TGI [17] was 23.4 µM and the TGI [18] was > 64.7 µM. The TGI [19] was 30.5 µM.
`COc1c2cc([N+](=O)[O-])cc1CN(C(=O)C(F)(F)F)CCOCCN(C(=O)C(F)(F)F)C2` was tested, and the TGI [1] was > 100 µM, the TGI [2] was > 100 µM and the TGI [3] was > 100 µM. The TGI [4] was > 100 µM, the TGI [5] was > 100 µM and the TGI [6] was > 100 µM. For the same molecule, the TGI [7] was > 100 µM, the TGI [8] was > 100 µM and the TGI [9] was > 100 µM. For the same molecule, the TGI [10] was > 100 µM, the TGI [11] was > 100 µM and the TGI [12] was > 100 µM. The TGI [13] was > 100 µM, the TGI [14] was > 100 µM and the TGI [15] was > 100 µM. The TGI [16] was > 100 µM, the TGI [17] was > 100 µM and the TGI [18] was > 100 µM. The TGI [19] was > 100 µM.
Molecule `CC(C)(C)C1=CC(=C2C=Cc3cc(O)ccc3O2)C=C(C(C)(C)C)C1=O` has a TGI [1] of 2.68 µM, a TGI [2] of 2.85 µM and a TGI [3] of 3.06 µM. For the same molecule, the TGI [4] was 3.55 µM, the TGI [5] was 5.51 µM and the TGI [6] was 3.19 µM. The TGI [7] was 8.22 µM, the TGI [8] was 3.55 µM and the TGI [9] was 3.43 µM. For the same molecule, the TGI [10] was 3.58 µM, the TGI [11] was 2.99 µM and the TGI [12] was 3.94 µM. For the same molecule, the TGI [13] was 3.87 µM, the TGI [14] was 4.09 µM and the TGI [15] was 3.02 µM. It also gave a TGI [16] of 3.48 µM, a TGI [17] of 2.16 µM and a TGI [18] of 3.09 µM. It also gave a TGI [19] of 2.69 µM.
For `C/C(O)=C(\C=NC(=S)c1cccnc1)C(=O)Nc1ccccc1C`, the TGI [1] was > 100 µM, the TGI [2] was > 100 µM and the TGI [3] was > 100 µM. The TGI [4] was > 100 µM, the TGI [5] was > 100 µM and the TGI [6] was > 100 µM. The TGI [7] was > 100 µM, the TGI [8] was > 100 µM and the TGI [9] was > 100 µM. The TGI [10] was > 100 µM, the TGI [11] was > 100 µM and the TGI [12] was > 100 µM. The TGI [13] was > 100 µM, the TGI [14] was > 100 µM and the TGI [15] was > 100 µM. For the same molecule, the TGI [16] was > 100 µM, the TGI [17] was > 100 µM and the TGI [18] was > 100 µM. The TGI [19] was > 100 µM.
With `C[C@H](c1ccccc1)n1c(N)c(-c2nc3ccccc3s2)c2ccc([N+](=O)[O-])cc2c1=O` the TGI [1] was > 100 µM, the TGI [2] was 75.2 µM and the TGI [3] was 65.7 µM. For the same molecule, the TGI [4] was > 95.9 µM, the TGI [5] was > 75.4 µM and the TGI [6] was 5.81 µM. The TGI [7] was > 43.7 µM, the TGI [8] was > 79.7 µM and the TGI [9] was > 63.1 µM. The TGI [10] was 6.66 µM, the TGI [11] was > 19.7 µM and the TGI [12] was > 100 µM. For the same molecule, the TGI [13] was > 100 µM, the TGI [14] was > 100 µM and the TGI [15] was > 100 µM. The TGI [16] was > 100 µM, the TGI [17] was 17.6 µM and the TGI [18] was > 100 µM. For the same molecule, the TGI [19] was 53.3 µM.
In the case of `CCOC(=O)c1csc(C(CSCc2ccc(OC)cc2)N2C(=O)c3ccccc3C2=O)n1` (stereo not given), the TGI [1] is reported as > 100 µM, the TGI [2] is reported as > 100 µM and the TGI [3] is reported as > 100 µM. The TGI [4] was > 100 µM, the TGI [5] was > 100 µM and the TGI [6] was > 100 µM. For the same molecule, the TGI [7] was > 100 µM, the TGI [8] was > 100 µM and the TGI [9] was > 100 µM. The TGI [10] was > 100 µM, the TGI [11] was 58.4 µM and the TGI [12] was > 100 µM. The TGI [13] was > 100 µM, the TGI [14] was > 100 µM and the TGI [15] was > 100 µM. For the same molecule, the TGI [16] was > 100 µM, the TGI [17] was > 100 µM and the TGI [18] was > 100 µM. For the same molecule, the TGI [19] was > 100 µM.
In the case of `CSc1ncc2c(C#N)c3[nH]c4ccccc4n3c(=O)c2n1`, the TGI [1] is reported as > 100 µM, the TGI [2] is reported as 52.7 µM and the TGI [3] is reported as > 100 µM. For the same molecule, the TGI [4] was > 100 µM, the TGI [5] was 76.4 µM and the TGI [6] was > 100 µM. For the same molecule, the TGI [7] was > 100 µM, the TGI [8] was 67 µM and the TGI [9] was > 100 µM. For the same molecule, the TGI [10] was > 100 µM, the TGI [11] was > 100 µM and the TGI [12] was > 100 µM. The TGI [13] was > 100 µM, the TGI [14] was > 100 µM and the TGI [15] was > 100 µM. For the same molecule, the TGI [16] was > 100 µM, the TGI [17] was > 100 µM and the TGI [18] was > 100 µM. The TGI [19] was > 100 µM.
With `CCOC(=O)c1c(N2CCOCC2)ncn(-c2cccc(Cl)c2)c1=O` the TGI [1] was > 100 µM, the TGI [2] was > 100 µM and the TGI [3] was > 100 µM. For the same molecule, the TGI [4] was > 100 µM, the TGI [5] was > 100 µM and the TGI [6] was > 100 µM. The TGI [7] was > 100 µM, the TGI [8] was > 100 µM and the TGI [9] was > 100 µM. The TGI [10] was > 100 µM, the TGI [11] was > 100 µM and the TGI [12] was > 100 µM. For the same molecule, the TGI [13] was > 100 µM, the TGI [14] was > 100 µM and the TGI [15] was > 100 µM. For the same molecule, the TGI [16] was > 100 µM, the TGI [17] was > 100 µM and the TGI [18] was > 100 µM. The TGI [19] was > 100 µM.
In the case of `CC(=Nc1cccc(Cl)c1)c1ccncc1`, the TGI [1] is reported as > 100 µM, the TGI [2] is reported as > 100 µM and the TGI [3] is reported as > 100 µM. The TGI [4] was > 100 µM, the TGI [5] was > 100 µM and the TGI [6] was > 100 µM. For the same molecule, the TGI [7] was > 100 µM, the TGI [8] was > 100 µM and the TGI [9] was > 100 µM. The TGI [10] was > 100 µM, the TGI [11] was > 100 µM and the TGI [12] was > 100 µM. For the same molecule, the TGI [13] was > 100 µM, the TGI [14] was > 100 µM and the TGI [15] was > 100 µM. The TGI [16] was > 100 µM, the TGI [17] was > 100 µM and the TGI [18] was > 100 µM. The TGI [19] was > 100 µM.
`CC[C@@H]([C@H](O)c1ccccc1Cl)[N+](=O)[O-]` was tested, and the TGI [1] was > 100 µM, the TGI [2] was > 100 µM and the TGI [3] was > 100 µM. For the same molecule, the TGI [4] was > 100 µM, the TGI [5] was > 100 µM and the TGI [6] was > 100 µM. The TGI [7] was > 100 µM, the TGI [8] was > 100 µM and the TGI [9] was > 100 µM. For the same molecule, the TGI [10] was > 100 µM, the TGI [11] was > 100 µM and the TGI [12] was > 100 µM. For the same molecule, the TGI [13] was > 100 µM, the TGI [14] was > 100 µM and the TGI [15] was > 100 µM. The TGI [16] was > 100 µM, the TGI [17] was > 100 µM and the TGI [18] was > 100 µM. For the same molecule, the TGI [19] was > 100 µM.
